According to paper PMC10194703 (Nature structural & molecular biology, 2023):
Values joined by “and” are separate entries in the source; they are usually repeats but may differ in a detail not shown here. Identical values can stand only once.

What was measured:
[1] = molecular target: His6-C-linker-CNBD construct of SthK (residues 226-423); assay: AFM imaging
[2] = molecular target: His6-C-linker-CNBD construct of SthK (residues 226-423); assay: SEC
[3] = molecular target: T1, His6-C-linker-CNBD (Winmispira thermophila, UniProt G0GA88); assay: microscale thermophoresis; assay type: binding; details: 50 nM labeled His6-C-linker-CNBD; cN 0.00305-100 μM
T1 sequence (G0GA88 226-423): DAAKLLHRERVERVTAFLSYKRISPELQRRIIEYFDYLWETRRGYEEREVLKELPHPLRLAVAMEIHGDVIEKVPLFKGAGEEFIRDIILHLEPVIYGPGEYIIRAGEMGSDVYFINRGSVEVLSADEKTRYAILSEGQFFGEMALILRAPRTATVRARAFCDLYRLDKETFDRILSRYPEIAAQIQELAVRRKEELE

[4] = molecular target: SthK full-length channels; details: read-out: affinity; SthK full-length channels in amphipol; cited from earlier work
[5] = system: SthK; details: cited from earlier work; for open probability Po: depolarized membrane potentials (+100 mV)
[6] = system: SthK CNBD; assay: joint Bell-Evans fitting of AFM-SMFS and MDS dynamic force spectra; details: Bell-Evans fit, AFM-SMFS + MDS joint data; 0.02 s bond formation
[7] = system: SthK CNBD; assay: AFM single molecule force spectroscopy; assay type: binding; details: for Ka: individual binding sites, Ka=Ka(2D)mr, mr=0.03 binding-sites/nm^2; for Ka(2D): probabilistic binding frequency model fit, contact time 0.02-1.00 s
[8] = interchange between state 1 and state 2 bonds

Compound | stoichiometry N [1] | stoichiometry N [2] | Kd [3] | Kd [4] | open probability Po [5] | fold lower open probability than cAMP ([5]; single channel recordings) | koff [6] | koff ([7]; Bell-Evans fit, AFM-SMFS only, 0.02 s (20 ms) bond formation time) | Ka [7] | kon(2D) ([7]; kon(2D)=Ka(2D)koff) | kon ([7]; molecular on rate, kon=Kakoff) | Ka(2D) [7] | bond formation time needed to fully populate state 2 [7] | k1 (forward rate constant for entering the deeper binding mode) [7, 8] | k−1 (reverse rate constant for entering the deeper binding mode) [7, 8]
His6-C-linker-CNBD construct of SthK (residues 226-423) (domain or fragment) | 4 | 4 |  |  |  |  |  |  |  |  |  |  |  |  | 
Nc1nc2c(ncn2[C@@H]2O[C@@H]3COP(=O)(O)O[C@H]3[C@H]2O)c(=O)[nH]1 [cGMP, cyclic guanosine monophosphate] |  |  | 3.3 ± 1.8 µM | 2.7 µM | ~ 0.001 | ~ 1000 fold | 13.9 ± 6.9 s⁻¹ | 7.7 ± 1.5 s⁻¹ | 0.15 ± 0.02 | 37.8 ± 9.7 nm^2/s | 1.2 ± 0.3 s⁻¹ | 4.9 ± 0.5 nm^2 |  |  | 
Nc1ncnc2c1ncn2[C@@H]1O[C@@H]2COP(=O)(O)O[C@H]2[C@H]1O [cAMP, cyclic adenosine monophosphate] |  |  |  | 0.6 µM | ~ 0.4 |  |  |  | 0.31 ± 0.04 |  |  | 10.4 ± 1.3 nm^2 | ~ 0.2 s | 5.4 ± 0.7 1/s and 5.4±0.7 * 1/s | 4.8 ± 0.8 1/s and 4.8±0.8 * 1/s
